Assay [1] addresses T1, Saccharomyces cerevisiae dihydroorotase (DHOase) (Saccharomyces cerevisiae, UniProt P20051).
T1 construct: gene URA4
T1 sequence (P20051 1-364): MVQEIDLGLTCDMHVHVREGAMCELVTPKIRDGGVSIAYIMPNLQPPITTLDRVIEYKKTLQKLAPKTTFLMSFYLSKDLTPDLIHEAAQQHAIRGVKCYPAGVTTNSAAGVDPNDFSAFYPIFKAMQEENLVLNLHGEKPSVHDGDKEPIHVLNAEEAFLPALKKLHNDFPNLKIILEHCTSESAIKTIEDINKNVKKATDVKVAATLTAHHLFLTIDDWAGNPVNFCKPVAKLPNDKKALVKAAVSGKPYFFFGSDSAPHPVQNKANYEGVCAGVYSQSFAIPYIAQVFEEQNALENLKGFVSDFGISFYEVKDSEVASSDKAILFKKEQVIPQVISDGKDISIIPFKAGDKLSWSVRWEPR
The assay is described as follows: spectrophotometric assay of dihydroorotate hydrolysis at […] nm with purified recombinant enzyme. The assay is classed as biochemical.

For assay [2], the target named is T1, Saccharomyces cerevisiae dihydroorotase (DHOase). Nature of the assay: spectrophotometric assay of dihydroorotate hydrolysis at […] nm with purified recombinant enzyme; […] inhibition at […]. The assay is classed as biochemical.

For the molecule `O=c1c(O)c(-c2cc(O)c(O)c(O)c2)oc2cc(O)cc(O)c12` [myricetin], the concentration for half-maximal inhibition (IC50) (as a rule, the concentration needed to halve the response being measured) in assay [1] is 12.5 ± 0.47 µM. Regarding `O=C(O)c1[nH]c(=O)[nH]c(=O)c1F` [5-FOA], the half-inhibitory concentration (IC50) in assay [2] was over 600 µM.

These data come from publication PMC12524618, “Conformational Dynamics of the Active Site Loop in Dihydroorotase Highlighting the Limitations of Loop-In Structures for Inhibitor Docking” (International Journal of Molecular Sciences, 2025).
